Ki data for 41 molecules are collected here from patent publication US20190352268A1, “CANNABINOID RECEPTOR MEDIATING COMPOUNDS” (The USA, as represented by the Secretary, Department of …, priority 2015, published 2019).

For one assay, the target named is CB1 (Mus musculus, UniProt P47746). As to the kind of experiment: CB1 radioligand displacement assay in mouse brain membranes. The assay is classed as binding. Also noted: radioligand displacement assay in mouse brain membranes; from tissue; host or cells: mouse brain membranes. Conditions: Table 1; read-out: Ki CB1. Background: In a radioligand displacement assay an active substance lowers the binding of a labelled ligand.
CB1, sequence (P47746 whole entry): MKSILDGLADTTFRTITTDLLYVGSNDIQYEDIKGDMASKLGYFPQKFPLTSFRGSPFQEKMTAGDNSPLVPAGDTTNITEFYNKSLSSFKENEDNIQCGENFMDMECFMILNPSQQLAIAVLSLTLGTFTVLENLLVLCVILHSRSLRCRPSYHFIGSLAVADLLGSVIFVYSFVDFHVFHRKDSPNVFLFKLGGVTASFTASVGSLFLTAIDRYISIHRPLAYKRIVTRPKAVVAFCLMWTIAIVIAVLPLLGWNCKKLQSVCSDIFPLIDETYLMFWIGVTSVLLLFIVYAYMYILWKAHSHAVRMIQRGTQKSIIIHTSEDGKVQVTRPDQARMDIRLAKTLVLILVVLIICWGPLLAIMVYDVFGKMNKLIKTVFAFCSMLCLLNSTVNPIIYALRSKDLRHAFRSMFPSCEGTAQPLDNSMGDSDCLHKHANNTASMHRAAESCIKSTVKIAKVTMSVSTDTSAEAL
Regarding `N/C(=N\C(=N\S(=O)(=O)c1ccc(Cl)cc1)N1CC(c2ccccc2)C(c2ccc(Cl)cc2)=N1)N1CCOCC1` (stereo not shown) [Compound 52], the Ki (commonly a measure of affinity in units of concentration, obtained from inhibition or displacement) is 193 nM.

Consider `CN(C)/C(N)=N/C(=N/S(=O)(=O)c1ccc(Cl)cc1)N1CC(c2ccccc2)C(c2ccc(Cl)cc2)=N1` (racemic) [Compound 44, rac-N-(amino(dimethylamino)methylene)-3-(4-chlorophenyl)-N-((4-chlorophenyl)sulfonyl)-4-phenyl-4,5-dihydro-1H-pyrazole-1-carboximidamide], for which the Ki is 171 nM.

For `CC(C)(C)OC(=O)N/C(N)=N/C(=N/S(=O)(=O)c1ccc(Cl)cc1)N1CC(c2ccccc2)C(c2ccc(Cl)cc2)=N1` (stereo not shown) [Compound 41], the Ki was 6.5 nM.

The assay is the same for the next values; noted with them: Table 2; read-out: Ki CB1.
As for `CC(C)(C)N/C(N)=N/C(=N/S(=O)(=O)c1ccc(Cl)cc1)N1CC(c2ccccc2)C(c2ccc(Cl)cc2)=N1` (stereo not shown) [Compound 46], the Ki stood at 49 nM.

`CC(C)(N/C(N)=N/C(=N/S(=O)(=O)c1ccc(Cl)cc1)N1CC(c2ccccc2)C(c2ccc(Cl)cc2)=N1)c1ccccc1` (stereo not shown) [Compound 66]: the Ki amounted to 112 nM.

Take `CC(N)=NC(=NS(=O)(=O)c1ccc(C)cc1)N1CC(c2ccccc2)C(c2ccc(Cl)cc2)=N1` (stereo not shown) [Compound 31]: the Ki is 87 nM.

Take `N/C(=N\C(=N\S(=O)(=O)c1ccc(Cl)cc1)N1CC(c2ccccc2)C(c2ccc(Cl)cc2)=N1)N1CCOCC1` (stereo not shown) [Compound 52]: the Ki was 193 nM.

`N/C(=N\C(=N\S(=O)(=O)c1ccc(Cl)cc1)N1CC(c2ccccc2)C(c2ccc(Cl)cc2)=N1)NC1CCCC1` (stereo not shown) [Compound 56]: the Ki was 459 nM.

On to `CC(=O)N/C(N)=N/C(=N/S(=O)(=O)c1ccc(Cl)cc1)N1CC(c2ccccc2)C(c2ccc(Cl)cc2)=N1` (stereo not shown) [Compound 65], for which the Ki is 9 nM.

As to `NC(=NC(=NS(=O)(=O)c1ccc(C(F)(F)F)cc1)N1CC(c2ccccc2)C(c2ccc(Cl)cc2)=N1)n1cccn1` (stereo not shown) [Compound 84], the Ki came out at 28 nM.

`N/C(=N\C(=N\S(=O)(=O)c1ccc(Cl)cc1)N1CC(c2ccccc2)C(c2ccc(Cl)cc2)=N1)n1cccn1` (stereo not shown) [Compound 63]: the Ki was 11 nM.

`CC(N)=NC(=NS(=O)(=O)c1ccc2ccccc2c1)N1CC(c2ccccc2)C(c2ccc(Cl)cc2)=N1` (stereo not shown) [Compound 33]: the Ki came out at 8 nM.

Take `NC(=NC(=NS(=O)(=O)c1ccc(I)cc1)N1CC(c2ccccc2)C(c2ccc(Cl)cc2)=N1)c1ccc(F)cc1` (stereo not shown) [Compound 87]: the Ki turned out to be 12 nM.

For `CCCN(CCC)/C(N)=N/C(=N/S(=O)(=O)c1ccc(Cl)cc1)N1CC(c2ccccc2)C(c2ccc(Cl)cc2)=N1` (stereo not shown) [Compound 37], the Ki is 138 nM.

On to `NC(=NC(=NS(=O)(=O)c1ccc(Cl)cc1)N1CC(c2ccccc2)C(c2ccc(Cl)cc2)=N1)SCc1ccccc1` (stereo not shown) [Compound 24], for which the Ki worked out at 127 nM.

Consider `COC(CN(C)C(N)=NC(=NS(=O)(=O)c1ccc(Cl)cc1)N1CC(c2ccccc2)C(c2ccc(Cl)cc2)=N1)OC` (stereo not shown) [Compound 68], for which the Ki was found to be 443 nM.

On to `COC(CN/C(N)=N/C(=N/S(=O)(=O)c1ccc(Cl)cc1)N1CC(c2ccccc2)C(c2ccc(Cl)cc2)=N1)OC` (stereo not shown) [Compound 60], for which the Ki is 443 nM.

Take `NC(=NC(=NS(=O)(=O)c1ccc(Cl)cc1)N1CC(c2ccccc2)C(c2ccc(Cl)cc2)=N1)c1ccccc1F` (stereo not shown) [Compound 15]: the Ki came out at 19 nM.

For `CC(C)(C)OC(=O)N/C(N)=N/C(=N/S(=O)(=O)c1ccc(Cl)cc1)N1CC(c2ccccc2)C(c2ccc(Cl)cc2)=N1` (stereo not shown) [Compound 41], the Ki is 6.5 nM.

Take `NC(=NC(=NS(=O)(=O)c1ccc(Cl)cc1)N1CC(c2ccccc2)C(c2ccc(Cl)cc2)=N1)NCC12CC3CC(CC(C3)C1)C2` (stereo not shown) [Compound 62]: the Ki is greater than 1000 nM.

`CC(N)=NC(=NS(=O)(=O)c1ccccc1)N1CC(c2ccccc2)C(c2ccc(Cl)cc2)=N1` (stereo not shown) [Compound 30]: the Ki was found to be 114 nM.

With `CC(C)(C)C(N)=NC(=NS(=O)(=O)c1ccc(I)cc1)N1CC(c2ccccc2)C(c2ccc(Cl)cc2)=N1` (stereo not shown) [Compound 89], the inhibition constant Ki came to 4.1 nM.

For the molecule `NC(=NC(=NS(=O)(=O)c1ccc(Cl)cc1)N1CC(c2ccccc2)C(c2ccc(Cl)cc2)=N1)c1ccc(F)cc1F` (stereo not shown) [Compound 19], the Ki was 7.7 nM.

For `N/C(=N\C(=N\S(=O)(=O)c1ccc(Cl)cc1)N1CC(c2ccccc2)C(c2ccc(Cl)cc2)=N1)NCCc1c[nH]c2ccccc12` (stereo not shown) [Compound 58], the Ki came out at 585 nM.

With `N/C(=N\C(=N\S(=O)(=O)c1ccc(Cl)cc1)N1CC(c2ccccc2)C(c2ccc(Cl)cc2)=N1)NCc1ccccc1` (stereo not shown) [Compound 50], the Ki is 505 nM.

Turning to `NC(=NC(=NS(=O)(=O)c1ccc(C(F)(F)F)cc1)N1CC(c2ccccc2)C(c2ccc(Cl)cc2)=N1)c1ccc(Cl)cc1` (stereo not shown) [Compound 82], the Ki amounted to 16 nM.

Consider `CC(N)=NC(=NS(=O)(=O)c1ccc(I)cc1)N1CC(c2ccccc2)C(c2ccc(Cl)cc2)=N1` (stereo not shown) [Compound 29], for which the Ki is 10 nM.

As for `O=S(=O)(N=C(N=C1CCCCN1)N1CC(c2ccccc2)C(c2ccc(Cl)cc2)=N1)c1ccc(Cl)cc1` (stereo not shown) [Compound 6], the Ki came out at 29 nM.

Turning to `CC(C)N/C(N)=N/C(=N/S(=O)(=O)c1ccc(Cl)cc1)N1CC(c2ccccc2)C(c2ccc(Cl)cc2)=N1` (stereo not shown) [Compound 47], the Ki was 516 nM.

Consider `CN(CC(C)(C)C)C(N)=NC(=NS(=O)(=O)c1ccc(Cl)cc1)N1CC(c2ccccc2)C(c2ccc(Cl)cc2)=N1` (stereo not shown) [Compound 67], for which the Ki was determined as 2390 nM.

Regarding `C=CCN(CC=C)/C(N)=N/C(=N/S(=O)(=O)c1ccc(Cl)cc1)N1CC(c2ccccc2)C(c2ccc(Cl)cc2)=N1` (stereo not shown) [Compound 35], the Ki was 263 nM.

With `Cc1cc(C)n(C(N)=NC(=NS(=O)(=O)c2ccc(C(F)(F)F)cc2)N2CC(c3ccccc3)C(c3ccc(Cl)cc3)=N2)n1` (stereo not shown) [Compound 85], the inhibitory constant (Ki) came out at 1.5 nM.

Regarding `CN(Cc1ccccc1)/C(N)=N/C(=N/S(=O)(=O)c1ccc(Cl)cc1)N1CC(c2ccccc2)C(c2ccc(Cl)cc2)=N1` (stereo not shown) [Compound 49], the Ki worked out at 343 nM.

As for `NC(COc1ccccc1)=NC(=NS(=O)(=O)c1ccc(Cl)cc1)N1CC(c2ccccc2)C(c2ccc(Cl)cc2)=N1` (stereo not shown) [Compound 13], the Ki worked out at 72 nM.

For `CCN(CC)/C(N)=N/C(=N/S(=O)(=O)c1ccc(Cl)cc1)N1CC(c2ccccc2)C(c2ccc(Cl)cc2)=N1` (stereo not shown) [Compound 38], the Ki was 49 nM.

For the molecule `CN(CCC#N)/C(N)=N/C(=N/S(=O)(=O)c1ccc(Cl)cc1)N1CC(c2ccccc2)C(c2ccc(Cl)cc2)=N1` (stereo not shown) [Compound 61], the Ki was 203 nM.

As for `CC(C)(C)C(N)=NC(=NS(=O)(=O)c1ccc(C(F)(F)F)cc1)N1CC(c2ccccc2)C(c2ccc(Cl)cc2)=N1` (stereo not shown) [Compound 81], the Ki was 3.4 nM.

Regarding `NC(=NC(=NS(=O)(=O)c1ccc(Cl)cc1)N1CC(c2ccccc2)C(c2ccc(Cl)cc2)=N1)NC12CC3CC(CC(C3)C1)C2` (stereo not shown) [Compound 64], the Ki is greater than 1000 nM.

On to `N/C(=N/C(=N\S(=O)(=O)c1ccc(Cl)cc1)N1CC(c2ccccc2)C(c2ccc(Cl)cc2)=N1)c1ccc(F)cc1` (single isomer, unassigned) [Compound 10E1], for which the Ki stood at 6.5 nM.

`CC(N)=NC(=NS(=O)(=O)c1ccc(Br)cc1)N1CC(c2ccccc2)C(c2ccc(Cl)cc2)=N1` (stereo not shown) [Compound 28]: the Ki was determined as 18 nM.

On to `N/C(=N\C(=N\S(=O)(=O)c1ccc(Cl)cc1)N1CC(c2ccccc2)C(c2ccc(Cl)cc2)=N1)NCCc1ccccc1` (stereo not shown) [Compound 51], for which the Ki is 931 nM.

Take `NC(=NC(=NS(=O)(=O)c1ccc(Cl)cc1)N1CC(c2ccccc2)C(c2ccc(Cl)cc2)=N1)c1ccc([N+](=O)[O-])cc1` (stereo not shown) [Compound 9]: the Ki is 62 nM.

Regarding `CCCCN(CC)/C(N)=N/C(=N/S(=O)(=O)c1ccc(Cl)cc1)N1CC(c2ccccc2)C(c2ccc(Cl)cc2)=N1` (stereo not shown) [Compound 36], the Ki turned out to be 535 nM.
